In patent US20080119515A1, “Heterocyclic Kinase Inhibitors: Methods of Use and Synthesis” (priority 2003, published 2008):

Target: T1, ZAP-70 (Homo sapiens, UniProt P43403)
T1 sequence (P43403 1-619): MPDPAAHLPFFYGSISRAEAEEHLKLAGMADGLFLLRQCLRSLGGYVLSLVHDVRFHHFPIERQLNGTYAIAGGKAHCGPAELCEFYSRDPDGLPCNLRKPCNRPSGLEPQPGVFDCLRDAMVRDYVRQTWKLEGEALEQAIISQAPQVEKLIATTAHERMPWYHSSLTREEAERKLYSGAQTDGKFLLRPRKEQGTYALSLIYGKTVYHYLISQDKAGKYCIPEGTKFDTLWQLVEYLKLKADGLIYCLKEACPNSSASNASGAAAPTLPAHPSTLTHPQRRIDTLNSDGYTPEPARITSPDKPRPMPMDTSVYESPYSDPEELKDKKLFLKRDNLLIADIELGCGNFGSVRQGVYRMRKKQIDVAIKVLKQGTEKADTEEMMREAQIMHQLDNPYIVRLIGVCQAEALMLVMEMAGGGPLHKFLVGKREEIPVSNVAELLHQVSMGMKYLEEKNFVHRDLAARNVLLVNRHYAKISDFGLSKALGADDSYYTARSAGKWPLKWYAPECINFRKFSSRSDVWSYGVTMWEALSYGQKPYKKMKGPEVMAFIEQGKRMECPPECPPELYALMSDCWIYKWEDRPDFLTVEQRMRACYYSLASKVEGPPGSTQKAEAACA
Test: DELFIA assay (ZAP-70 kinase, phosphorylation of biotinylated poly(glu,tyr))
Assay type: biochemical
Details: ZAP-70 DELFIA, class symbols; read-out: Activity (IC50 in vitro)
Experimental: Before initiation of kinase reactions, compounds were pre-incubated with ZAP-70. Pre-incubation reactions contained 62.5 mM Mops pH 7.0, 12.5 mM MgCl2, 12.5% glycerol, 3.1 nM ZAP-70, 62.5 nM biotinylated poly(glu,Tyr), 0.1 mg/ml BSA, 6.25% DMSO and […] compound in a total volume of […]. After a 10 minute room temperature incubation, 10 ml of 5 mM ATP was added to start the reaction. Reactions were incubated at room temperature for 30 minutes then terminated by addition of 5 ml 500 mM EDTA. The amount of phosphate transferred to biotinylated poly(glu,tyr) was measured using the Dissociation Enhanced Lanthanide Fluorescence Immuno-assay (DELFIA) from Perkin Elmer according to manufacturers protocol. Briefly, biotinylated […] was captured on streptavidin coated plates, washed twice, then incubated with Europium labeled-anti-phosphotyrosine antibody. Free antibody was removed with six washes, Europium was dissociated from the antibody, and Europium fluorescence was measured at using an excitation wavelength of 340 nm and an emission wavelength of 615 nm.

Row | SMILES | IC50 [µM]
1 | Fc1ccc(CCc2cc(Nc3ccc(N4CCNCC4)cc3)c3cc(-c4ccc5c(c4)OCO5)ccc3n2)cc1 [Compound 414] | > 10
2 | O=C(c1cc(N2CCCC2)nc2ccc(-c3ccc4c(c3)OCO4)cc12)N1CCC[C@H]1CN1CCCC1 [Compound 63] | 1 to 10
3 | N#Cc1ccc(-c2ccc3nc(N4CCCC4c4ccccc4)cc(C(=O)N4CCC[C@H]4CN4CCCC4)c3c2)cc1 (stereo partly shown) [Compound 257] | > 10
4 | CN(CCc1ccccc1)c1cc(C(=O)N2CCC[C@H]2CN2CCCC2)c2cc(-c3ccc(C#N)cc3)ccc2n1 [Compound 175] | > 10
5 | CC(Nc1cc(C(=O)N2CCC[C@H]2CN2CCCC2)c2cc(-c3ccc(C#N)cc3)ccc2n1)c1ccc(F)cc1 (stereo partly shown) [Compound 223] | > 10
6 | CN(CCc1ccccc1)c1cc(C(=O)N2CCC[C@H]2CN2CCCC2)cc(N(C)c2ccccc2)n1 [Compound 371] | > 10
7 | O=C(c1cc(CCc2ccc(Cl)cc2)nc2ccc(-c3ccc4c(c3)OCO4)cc12)N1CCC[C@H]1CN1CCCC1 [Compound 136] | 1 to 10
8 | O=C(c1cc(Nc2ccc3ncsc3c2)nc2ccc(-c3ccc4c(c3)OCO4)cc12)N1CCC[C@H]1CN1CCCC1 [Compound 56] | < 1
9 | N#Cc1ccc(-c2ccc3nc(N4CCCC(c5cccc(C(F)(F)F)c5)C4)cc(C(=O)N4CCC[C@H]4CN4CCCC4)c3c2)cc1 (stereo partly shown) [Compound 269] | > 10
10 | CC1CN(c2ccc(Cc3cc(C(=O)N4CCCC4CN4CCCC4)c4cc(-c5ccc6c(c5)OCO6)ccc4n3)cc2)CCN1 (stereo not shown) [Compound 438] | < 1
11 | CN(c1cc(C(=O)N2CCC[C@H]2CN2CCCC2)c2cc(-c3ccc4c(c3)OCO4)ccc2n1)C1CCCCC1 [Compound 70] | < 1
12 | N#Cc1ccc(-c2ccc3nc(N4CCC(c5ccc(Cl)cc5)C4)cc(C(=O)N4CCC[C@H]4CN4CCCC4)c3c2)cc1 (stereo partly shown) [Compound 261] | > 10
13 | O=C(c1cc(Nc2ccc(Cl)cc2)nc2ccc(-c3ccc4c(c3)OCO4)cc12)N1CCC[C@H]1CN1CCCC1 [Compound 52] | < 1
14 | O=C(c1cc(N2CCC[C@@H]2CO)nc2ccc(-c3ccc4c(c3)OCO4)cc12)N1CCC[C@H]1CN1CCCC1 [Compound 91] | < 1
15 | O=C(c1cc(Cl)nc(/C=C/c2ccccc2)c1)N1CCC[C@H]1CN1CCCC1 [Compound 115] | > 10
16 | CCN(Cc1ccc(C)cc1)C(=O)c1cc(C(=O)N2CCC[C@H]2CN2CCCC2)c2cc(-c3ccc4c(c3)OCO4)ccc2n1 [Compound 143] | 1 to 10
17 | N#Cc1ccc(-c2ccc3nc(NCCc4ccc(Cl)cc4Cl)cc(C(=O)N4CCC[C@H]4CN4CCCC4)c3c2)cc1 [Compound 193] | > 10
18 | O=C(c1cc(NCc2ccc(C(F)(F)F)cc2)nc2ccc(CCc3ccccc3)cc12)N1CCC[C@H]1CN1CCCC1 [Compound 285] | 1 to 10
19 | N#Cc1ccc(-c2ccc3nc(N4CCCC(c5ccc(C(F)(F)F)cc5)C4)cc(C(=O)N4CCC[C@H]4CN4CCCC4)c3c2)cc1 (stereo partly shown) [Compound 266] | > 10
20 | Cc1ccsc1CNc1cc(C(=O)N2CCC[C@H]2CN2CCCC2)c2cc(-c3ccc(C#N)cc3)ccc2n1 [Compound 271] | > 10
21 | N#Cc1ccc(-c2ccc3nc(N(CCO)Cc4ccccc4)cc(C(=O)N4CCC[C@H]4CN4CCCC4)c3c2)cc1 [Compound 212] | > 10
22 | Clc1cc(N2CCC[C@H]2CN2CCCC2)nc2ccc(-c3ccc4c(c3)OCO4)cc12 [Compound 101] | 1 to 10
23 | Cn1ccc2cc(-c3ccc4nc(NCc5ccc(C(F)(F)F)cc5)cc(C(=O)N5CCC[C@H]5CN5CCCC5)c4c3)ccc21 [Compound 421] | > 10
24 | COc1ccc(CCNc2cc(C(=O)N3CCC[C@H]3CN3CCCC3)c3cc(-c4ccc(C#N)cc4)ccc3n2)cc1 [Compound 177] | > 10
25 | O=C(c1cc(NCc2ccc(C(F)(F)F)cc2)nc2c(-c3ccc4c(c3)OCO4)cc(Cl)cc12)N1CCC[C@H]1CN1CCCC1 [Compound 383] | > 10
26 | O=C(c1cc(/C=C/c2ccc(C(F)(F)F)cc2)nc2ccc(-c3ccc4c(c3)OCO4)cc12)N1CCC[C@H]1CN1CCCC1 [Compound 133] | 1 to 10
27 | O=C(c1cc(Nc2cccc(C3CCNC[C@@H]3O)c2)nc2ccc(-c3ccc4c(c3)OCO4)cc12)N1CCCC1CN1CCCC1 (stereo partly shown) [Compound 430] | < 1
28 | O=C(c1cc(NCc2cccs2)nc2ccc(-c3ccc4c(c3)OCO4)cc12)N1CCC[C@H]1CN1CCCC1 [Compound 50] | < 1

Row | SMILES | IC50 [µM]
29 | CN(C)CCN(C)c1cc(C(=O)N2CCC[C@H]2CN2CCCC2)c2cc(-c3ccc4c(c3)OCO4)ccc2n1 [Compound 67] | > 10
30 | N#Cc1ccc(-c2ccc3nc(NCc4cccc(F)c4)cc(C(=O)N4CCC[C@H]4CN4CCCC4)c3c2)cc1 [Compound 161] | > 10
31 | N#Cc1ccc(-c2ccc3nc(NCc4cccc(O)c4)cc(C(=O)N4CCC[C@H]4CN4CCCC4)c3c2)cc1 [Compound 321] | 1 to 10
32 | N#Cc1ccc(-c2ccc3nc(NCc4cc(Cl)cc(Cl)c4)cc(C(=O)N4CCC[C@H]4CN4CCCC4)c3c2)cc1 [Compound 189] | > 10
33 | N#Cc1ccc(-c2ccc3nc(NCCc4ccc(F)cc4)cc(C(=O)N4CCC[C@H]4CN4CCCC4)c3c2)cc1 [Compound 192] | > 10
34 | N#Cc1cccc(-c2ccc3c(C(=O)N4CCC[C@H]4CN4CCCC4)cc(NCc4ccc(C(F)(F)F)cc4)nc3c2)c1 [Compound 119] | > 10
35 | O=C(c1cc(N2CCN(C3CCCC3)CC2)nc2ccc(-c3ccc4c(c3)OCO4)cc12)N1CCC[C@H]1CN1CCCC1 [Compound 79] | 1 to 10
36 | N#Cc1ccc(-c2ccc3nc(N4CCCC(c5ccccc5)C4)cc(C(=O)N4CCC[C@H]4CN4CCCC4)c3c2)cc1 (stereo partly shown) [Compound 265] | > 10
37 | N#Cc1ccc(-c2ccc3nc(NCc4ccccc4)cc(C(=O)N4CCC[C@H]4CN4CCCC4)c3c2)cc1 [Compound 154] | > 10
38 | O=C(c1cc(N2CCc3ccccc3C2)nc2ccc(-c3ccc4c(c3)OCO4)cc12)N1CCC[C@H]1CN1CCCC1 [Compound 65] | < 1
39 | O=C(c1cc(NC2CC2)nc2ccc(-c3ccc4c(c3)OCO4)cc12)N1CCC[C@H]1CN1CCCC1 [Compound 2] | 1 to 10
40 | O=C(c1cc(CCCCc2ccc(Cl)cc2)nc2ccc(-c3ccc4c(c3)OCO4)cc12)N1CCC[C@H]1CN1CCCC1 [Compound 407] | < 1
41 | N#Cc1ccc(-c2ccc3nc(NCc4ccc(Cl)cc4)cc(C(=O)N4CCC[C@H]4CN4CCCC4)c3c2)cc1 [Compound 168] | > 10
42 | O=C(Nc1cc(C(=O)N2CCC[C@H]2CN2CCCC2)c2cc(-c3ccc4c(c3)OCO4)ccc2n1)c1ccc(C(F)(F)F)cc1 [Compound 102] | 1 to 10
43 | CCN(CCOC)c1cc(C(=O)N2CCC[C@H]2CN2CCCC2)c2cc(-c3ccc4c(c3)OCO4)ccc2n1 [Compound 72] | 1 to 10
44 | O=C(c1cc(CCc2cccc(C(F)(F)F)c2)nc2ccc(-c3ccc4c(c3)OCO4)cc12)N1CCC[C@H]1CN1CCCC1 [Compound 410] | < 1
45 | CS(=O)(=O)c1ccc(-c2ccc3c(C(=O)N4CCC[C@H]4CN4CCCC4)cc(NCc4ccc(C(F)(F)F)cc4)nc3c2)cc1 [Compound 123] | 1 to 10
46 | N#Cc1ccc(-c2ccc3nc(NCc4ccccc4F)cc(C(=O)N4CCC[C@H]4CN4CCCC4)c3c2)cc1 [Compound 158] | > 10
47 | Cc1ccc(F)cc1CNc1cc(C(=O)N2CCC[C@H]2CN2CCCC2)c2cc(-c3ccc(C#N)cc3)ccc2n1 [Compound 226] | > 10
48 | N#Cc1ccc(-c2ccc3nc(NCCc4cccc(O)c4)cc(C(=O)N4CCC[C@H]4CN4CCCC4)c3c2)cc1 [Compound 320] | 1 to 10
49 | O=C(c1cc(NCCN2CCOCC2)nc2ccc(-c3ccc4c(c3)OCO4)cc12)N1CCC[C@H]1CN1CCCC1 [Compound 26] | > 10
50 | N#Cc1ccc(-c2ccc3nc(NCc4ccc(Cl)cc4F)cc(C(=O)N4CCC[C@H]4CN4CCCC4)c3c2)cc1 [Compound 180] | > 10
51 | CC(=O)NCCNc1cc(C(=O)N2CCC[C@H]2CN2CCCC2)c2cc(-c3ccc4c(c3)OCO4)ccc2n1 [Compound 71] | > 10
52 | O=C(c1cc(NCCc2ccccc2)nc2ccc(-c3ccc4c(c3)OCO4)cc12)N1CCC[C@H]1CN1CCCC1 [Compound 37] | < 1
53 | O=C(c1cc(NCc2ccc(C(F)(F)F)cc2)nc2ccc(-c3ccc4c(c3)OCO4)cc12)N1CCC[C@H]1CNC1CCC1 [Compound 359] | < 1
54 | O=C(c1cc(Cc2ccc(N3CCC4(CC3)CNC4)cc2)nc2ccc(-c3ccc4c(c3)OCO4)cc12)N1CCCC1CN1CCCC1 (stereo not shown) [Compound 445] | < 1
55 | C[C@@H](Nc1cc(C(=O)N2CCC[C@H]2CN2CCCC2)c2cc(-c3ccc(C#N)cc3)ccc2n1)c1ccc2ccccc2c1 [Compound 207] | > 10
